Measurements published in publication PMC10922308 (Cell chemical biology, 2023).

Experiments:
Format in all cases: cell-based
PIM3 = PIM3 (Homo sapiens, UniProt Q86V86); assay: PROTAC degradation immunoblot in PC3 cells
PIM1 [1] = biological target: T1, PIM1 (Homo sapiens, UniProt P11309)
PIM2 = PIM2 (Homo sapiens, UniProt Q9P1W9); assay: PROTAC degradation immunoblot in PC3 cells
PIM1 [2] = biological target: T1, PIM1; assay: PROTAC degradation immunoblot in PC3-dox-PIM1 cells
PIM1 [3] = biological target: T1, PIM1; assay: as above; remark: listed apart in the source

T1 sequence (P11309 whole entry): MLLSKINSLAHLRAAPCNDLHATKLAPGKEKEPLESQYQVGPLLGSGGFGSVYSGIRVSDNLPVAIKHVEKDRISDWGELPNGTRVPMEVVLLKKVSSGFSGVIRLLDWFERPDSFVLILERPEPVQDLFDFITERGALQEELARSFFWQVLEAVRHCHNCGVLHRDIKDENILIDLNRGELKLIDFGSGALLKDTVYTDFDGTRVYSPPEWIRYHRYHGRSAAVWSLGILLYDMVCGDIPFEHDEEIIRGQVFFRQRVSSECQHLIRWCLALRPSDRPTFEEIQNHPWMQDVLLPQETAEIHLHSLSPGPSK
T1 sequence (P40337 whole entry partner): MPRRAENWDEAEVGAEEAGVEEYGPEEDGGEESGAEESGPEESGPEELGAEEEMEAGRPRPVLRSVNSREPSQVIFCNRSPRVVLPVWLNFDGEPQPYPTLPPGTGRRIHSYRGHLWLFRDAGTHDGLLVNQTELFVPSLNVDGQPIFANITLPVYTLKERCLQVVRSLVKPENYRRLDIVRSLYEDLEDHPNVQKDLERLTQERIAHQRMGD
PIM3, sequence (P40337 whole entry partner): as the sequence (P40337 whole entry partner) above
PIM2, sequence (Q9P1W9 whole entry): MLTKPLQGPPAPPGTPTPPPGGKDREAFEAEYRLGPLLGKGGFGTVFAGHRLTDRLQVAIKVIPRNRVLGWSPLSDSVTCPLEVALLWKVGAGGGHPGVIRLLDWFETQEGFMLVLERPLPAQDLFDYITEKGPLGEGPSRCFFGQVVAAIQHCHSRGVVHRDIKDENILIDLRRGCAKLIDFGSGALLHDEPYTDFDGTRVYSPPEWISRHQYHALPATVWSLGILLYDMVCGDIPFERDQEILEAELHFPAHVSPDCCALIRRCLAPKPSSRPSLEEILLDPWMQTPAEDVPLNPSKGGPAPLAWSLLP
PIM2, sequence (P40337 whole entry partner): as the sequence (P40337 whole entry partner) above

Question: `Cc1ncsc1-c1ccc([C@H](C)NC(=O)[C@@H]2C[C@@H](O)CN2C(=O)[C@@H](NC(=O)CCCCCCC(=O)N2CCC(CNc3ccc4ncc(-c5cccc(OC(F)(F)F)c5)n4n3)CC2)C(C)(C)C)cc1` [SGI-1776-VHL-02, (2S,4R)-1-((S)-3,3-dimethyl-2-(8-oxo-8-(4-(((3-(3-(trifluoromethoxy)phenyl)imidazo[1,2-b]pyridazin-6-yl)amino)methyl)piperidin-1-yl)octanamido)butanoyl)-4-hydroxy-N-((S)-1-(4-(4-methylthiazol-5-yl)phenyl)ethyl)pyrrolidine-2-carboxamide] was tested. Which “PROTAC degradation immunoblot in PC3 cells” value (PIM3) did it give?
Answer: 1.5 µM

Question: And the “PROTAC degradation immunoblot in PC3 cells, with VH298, MG-132, MLN4924, cis-epi” value (PIM1 [1])?
Answer: 0.75 µM

Question: And the “PROTAC degradation immunoblot in PC3 cells” value (PIM2)?
Answer: 3.75 µM

Question: With `Cc1ncsc1-c1ccc([C@H](C)NC(=O)[C@@H]2C[C@@H](O)CN2C(=O)[C@@H](NC(=O)CCCCCCC(=O)N[C@H]2CCCN(c3c(/C=C4\SC(=O)NC4=O)cccc3-c3ccccc3)C2)C(C)(C)C)cc1` [AZD1208-VHL-01, N^1-((S)-1-(3-((Z)-(2,4-dioxothiazolidin-5-ylidene)methyl)-[1,1’-biphenyl]-2-yl)piperidin-3-yl)-N^8-((S)-1-((2S,4R)-4-hydroxy-2-(((S)-1-(4-(4-methylthiazol-5-yl)phenyl)ethyl)carbamoyl)pyrrolidin-1-yl)-3,3-dimethyl-1-oxobutan-2-yl)octanediamide] as the compound, how does the “PROTAC degradation immunoblot in PC3-dox-PIM1 cells” value (PIM1 [2]) read?
Answer: 6.25 µM

Question: With `Cc1ncsc1-c1ccc([C@H](C)NC(=O)[C@@H]2C[C@@H](O)CN2C(=O)[C@@H](NC(=O)CCOCCOCCN2CCC(CNc3ccc4ncc(-c5cccc(OC(F)(F)F)c5)n4n3)CC2)C(C)(C)C)cc1` [SGI-1776-VHL-01, (2S,4R)-1-((S)-3,3-dimethyl-2-(3-(2-(2-(4-(((3-(3-(trifluoromethoxy)phenyl)imidazo[1,2-b]pyridazin-6-yl)amino)methyl)piperidin-1-yl)ethoxy)ethoxy)propanamido)butanoyl)-4-hydroxy-N-((S)-1-(4-(4-methylthiazol-5-yl)phenyl)ethyl)pyrrolidine-2-carboxamide] as the compound, how does the “PROTAC degradation immunoblot in PC3-dox-PIM1 cells (hook effect seen)” value (PIM1 [3]) read?
Answer: 0.75 µM

Question: Which “PROTAC degradation immunoblot in PC3 cells, with VH298, MG-132, MLN4924, cis-epi” value (PIM1 [1]) does the source give for `Cc1ncsc1-c1ccc([C@H](C)NC(=O)[C@@H]2C[C@@H](O)CN2C(=O)[C@@H](NC(=O)CCCCCCC(=O)N[C@@H]2CC(c3ccncc3NC(=O)c3ccc(F)c(-c4c(F)cccc4F)n3)C[C@H](C)C2)C(C)(C)C)cc1` (stereo partly drawn) [PIM447-VHL-01, N^1-((1S,5S)-3-(3-(6-(2,6-difluorophenyl)-5-fluoropicolinamido)pyridin-4-yl)-5-methylcyclohexyl)-N^8-((S)-1-((2S,4R)-4-hydroxy-2-(((S)-1-(4-(4-methylthiazol-5-yl)phenyl)ethyl)carbamoyl)pyrrolidin-1-yl)-3,3-dimethyl-1-oxobutan-2-yl)octanediamide] here?
Answer: 0.75 µM
